“And” between values parts separate entries of the source, which are not always exact repeats. Equal values may be shown once.
How the values were obtained:
female German cockroach = assay: Choice test arena repellency, female German cockroach; type: in vivo, Blattella germanica; parameters: key: seconds spent on the side during a 300-second period; conditions: 10% by volume (1600 μg/cm^2) vs. acetone
Experimental: One Whatman 125-mm round filter paper was cut in half. One side was treated with one (1) ml of the test compound and the other side was treated with one (1) ml of solvent. The papers were allowed to dry in a fume hood for approximately two (2) minutes before being placed in a 150-mm Petri dish arena. The relative position of the treated side (i.e., to the right or left) of the dish was randomized using a random number table. […] The hole was stopped using a small piece of tape to prevent the insect from escaping. One adult male German cockroach (Blattella germanica) was selected from the colony and dropped into the pre-formed hole in the Petri dish lid. Immediately after introduction of the cockroach, the number of seconds the cockroach spent on the treated or untreated side during a 300-second (five (5) minute) period was recorded with two different (2) stopwatches. Ten (10) replications were performed for each test compound.
Testing methods and materials. In this experiment, female German cockroaches were tested in the same manner described in Example 1 against the steam distillates of catnip and the Osage orange. Testing using the commercial repellent, DEET, was also performed for comparison. It is known that male cockroaches are generally more sensitive to repellents, such as DEET, than female cockroaches.

[1] = system: antennectomized male German cockroaches; assay: Choice test arena behavioral assay of antennectomized male cockroaches; type: in vivo, Blattella germanica; conditions: Annectomized male cockroaches; 1600 μg/cm^2
Experimental: Testing Procedure. Male cockroaches were antennectomized by using a razor blade to remove the antennae as close to the head as possible. The cockroaches were allowed to recover from the procedure for 24 hours before being exposed to the test compounds in the bioassay described in Example 1. Results.

For `CCN(CC)C(=O)c1cccc(C)c1` [DEET, N,N-diethyl-3-methylbenzamide, reference compound], the “treated, mean of 10 trials” value (female German cockroach) was 144, the “untreated, mean of 10 trials” value (female German cockroach) was 156.9 and the “treated (time on treated side), single trials 1-10” value (female German cockroach; 300-second test as Example 1, in s (unit assumed)) was 99 and 166 and 116 and 181 and 157 and 146 and 137 and 150. The “Mean seconds on treated side ± SEM” value [1] was 148 ± 17.1 s and the “Mean seconds on untreated side” value [1] was 154 ± 17.2 s.
